Marks after values point to notes of the source that are not given here.
Key:
[1] = test system: bone marrow cell populations; experiment: Cell populations in bone marrow of normal mice; type: in vivo; conditions: 54 mpk
Procedure: Cells were stained in PBS, 0.5% BSA with antibodies for 15 min on ice. Stained cells were acquired on a 4-laser LSR-II (BD Biosciences) and data analyzed using FlowJo software (Treestar). Dead cells were labeled with the blue fluorescent LIVE/DEAD reactive dye (Invitrogen) and excluded from the analysis.
Monoclonal antibodies (anti-mouse): CD3, CD4, CD5, CD8, CD11b, CD19, CD21/35, CD23, CD25, CD43, CD44, CD49b, CD69, CD71, CD93, CD117, B220, GR-1, IgD, NK1.1, NKG2A/C/E, NKG2D, Ter119 were purchased from BD Biosciences; CD4, CD8, CD49b, CD62L, TCRβ, TCRγδ from eBioscience; GR-1 from Invitrogen; CD43 from Miltenyi Biotec. Goat anti-mouse IgM-FITC, (μ chain specific) from Jackson Immuno Research.
(§1) JAK2 and its family members JAK1 and JAK3 are known to signal downstream of cytokines that play essential roles in the development of lymphoid cell populations. To examine more thoroughly the effects of JAK2 inhibition on lymphoid cells, we analyzed wild-type (C57BL/6) mice treated with 54 mpk MRLB-11055 for 3 days, 6 days or up to 5 cycles of 3 days (“on”) followed by a 4 day holiday (“off”).
Supplementary file pone.0037207.s006.doc: Table S4 Effect of MRLB-11055 on Cell Populations in Bone Marrow of Normal Mice. Cell counts measured by Advia. Cycles refer to 3 days of treatment followed by a 4 day holiday. *p<0.05 in Student T test when comparing vehicle 5 cycle with treatment 5 cycle and vehicle 2 cycle with treatment 2 cycle, resp. (DOC) Click here for additional data file.

[2] = molecular target: T1, JAK3 (JH1) (Homo sapiens, UniProt P52333); experiment: JAK3 enzyme assay, HTRF detection; type: biochemical
T1 construct: JAK3 (JH1)
Procedure: JAK1, JAK2, JAK3, and TYK2 kinase activity assays were performed as described previously using HTRF detection technology and the peptide substrate amino hexanoyl biotin-EQEDEPEGDYFEWLE-NH2. Each reaction was incubated between 60 and 80 min at room temperature. Final conditions were as follows: JAK1, 400 pM enzyme, Hepes pH 7.5, 10 mM MgCl2, 0.01% Brij-35, 1 mM EGTA, 0.1 mg/ml BSA), 2 mM DTT, 2 µM peptide substrate, 25 µM MgATP, 5% DMSO and the desired concentration of subject compound; JAK2, 25 pM enzyme (JH1, JH1–JH2^wt, JH1–JH2^V617F domains), 2 µM peptide substrate, 15 µM MgATP, 5 mM MgCl2, 100 mM NaCl, 2 mM DTT, 0.1 mg/ml BSA, 50 mM Tris (pH 7.4), 5% DMSO and the desired concentration of subject compound; JAK3, 250 pM enzyme, 50 mM Hepes pH 7.5, 10 mM MgCl2, 0.01% Brij-35, 1 mM EGTA, 0.1 mg/ml BSA), 2 mM DTT, 2.0 µM peptide substrate, 25 µM MgATP, 5% DMSO, and the desired concentration of subject compound; TYK2, 125 pM enzyme, 50 mM Hepes pH 7.5, 10 mM MgCl2, 0.01% Brij-35, 1 mM EGTA, 0.1 mg/ml BSA, 2 mM DTT, 2.0 µM peptide substrate, 15 µM MgATP, 5% DMSO and the desired concentration of subject compound.

[3] = test system: peripheral blood cell populations; experiment: Cell populations in peripheral blood of normal mice; type: in vivo, C57BL/6 mice; conditions: 54 mpk
Text: as §1
Supplementary file pone.0037207.s005.doc: Table S3 Effect of MRLB-11055 on Cell Populations in Peripheral Blood of Normal Mice. Cell counts measured by Advia. Cycles refer to 3 days of treatment followed by a 4 day holiday. *p<0.01 and **p<0.001 in Student T test when comparing vehicle with treatment. HCT, hematocrit; RBC, red blood cells; HGB, hemoglobin; WBC, white blood cells. (DOC) Click here for additional data file.

[4] = 2 cycles (3 days treatment, 4 day holiday)
[5] = 5 cycles (3 days treatment, 4 day holiday)

T1 sequence (P52333 822-1111 limits assumed, species assumed): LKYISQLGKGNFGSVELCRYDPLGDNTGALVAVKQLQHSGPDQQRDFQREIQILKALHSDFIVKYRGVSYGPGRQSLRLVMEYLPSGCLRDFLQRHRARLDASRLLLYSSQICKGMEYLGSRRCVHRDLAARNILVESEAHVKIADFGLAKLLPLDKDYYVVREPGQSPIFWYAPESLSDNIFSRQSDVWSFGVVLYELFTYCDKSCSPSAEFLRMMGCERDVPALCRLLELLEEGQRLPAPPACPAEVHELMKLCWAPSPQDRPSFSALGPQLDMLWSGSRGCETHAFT

For `NC(=O)c1cnc(N[C@H](C2CC2)C(F)(F)F)c2c1[nH]c1cc(-c3cnc(N)nc3)ccc12` [MRLB-11055], the “B-Cells (CD19+B220+) Immature AA4.1+ IgM+” value [1, 4] was 0.70 ± 0.04* x 10^6, the “B-Cells (CD19+B220+) Mature AA4.1- IgM+” value [1, 4] was 0.54 ± 0.12 x 10^6 and the “B-Cells (CD19+B220+) Pro/pre AA4.1+ IgM-” value [1, 4] was 2.78 ± 0.92 x 10^6. The “B-Cells (CD19+B220+) Total” value [1, 4] was 4.05 ± 0.94* x 10^6, the “Erythroid Progenitors” value [1, 4] was 8.3 ± 0.9 x 10^6 and the “Mature Erythrocytes” value [1, 4] was 13.5 ± 0.7 x 10^6. For the same compound, the “Myeloid GR-1+ CD11b+” value [1, 4] was 8.33 ± 0.85* x 10^6, the “Nucleated Cells” value [1, 4] was 25.0 ± 4.0 x 10^6 and the “B-Cells (CD19+B220+) Immature AA4.1+ IgM+” value [1, 5] was 0.15 ± 0.05* x 10^6. The “B-Cells (CD19+B220+) Mature AA4.1- IgM+” value [1, 5] was 0.38 ± 0.17* x 10^6, the “B-Cells (CD19+B220+) Pro/pre AA4.1+ IgM-” value [1, 5] was 1.22 ± 0.74 x 10^6 and the “B-Cells (CD19+B220+) Total” value [1, 5] was 1.76 ± 0.87* x 10^6. The “Erythroid Progenitors” value [1, 5] was 5.9 ± 1.9 x 10^6, the “Mature Erythrocytes” value [1, 5] was 10.3 ± 3.2 x 10^6 and the “Myeloid GR-1+ CD11b+” value [1, 5] was 7.83 ± 3.46 x 10^6. The “Nucleated Cells” value [1, 5] was 19.6 ± 7.2 x 10^6, the “B-Cells (CD19+B220+) Immature AA4.1+ IgM+” value ([1]; 3 days) was 0.22 ± 0.09* x 10^6 and the “B-Cells (CD19+B220+) Mature AA4.1- IgM+” value ([1]; 3 days) was 0.32 ± 0.17* x 10^6. For the same compound, the “B-Cells (CD19+B220+) Pro/pre AA4.1+ IgM-” value ([1]; 3 days) was 0.24 ± 0.10* x 10^6, the “B-Cells (CD19+B220+) Total” value ([1]; 3 days) was 0.78 ± 0.35* x 10^6 and the “Erythroid Progenitors” value ([1]; 3 days) was 0.5 ± 0.3* x 10^6. For the same compound, the “Mature Erythrocytes” value ([1]; 3 days) was 25.0 ± 5.5* x 10^6, the “Myeloid GR-1+ CD11b+” value ([1]; 3 days) was 2.07 ± 0.55* x 10^6 and the “Nucleated Cells” value ([1]; 3 days) was 4.7 ± 1.6* x 10^6. The “B-Cells (CD19+B220+) Immature AA4.1+ IgM+” value ([1]; 6 days) was 0.11 ± 0.03* x 10^6, the “B-Cells (CD19+B220+) Mature AA4.1- IgM+” value ([1]; 6 days) was 0.59 ± 0.52 x 10^6 and the “B-Cells (CD19+B220+) Pro/pre AA4.1+ IgM-” value ([1]; 6 days) was 0.08 ± 0.03* x 10^6. The “B-Cells (CD19+B220+) Total” value ([1]; 6 days) was 0.79 ± 0.54* x 10^6, the “Erythroid Progenitors” value ([1]; 6 days) was 1.4 ± 0.8* x 10^6 and the “Mature Erythrocytes” value ([1]; 6 days) was 18.7 ± 2.5* x 10^6. The “Myeloid GR-1+ CD11b+” value ([1]; 6 days) was 1.90 ± 0.68* x 10^6, the “Nucleated Cells” value ([1]; 6 days) was 5.4 ± 2.2* x 10^6 and the IC50 ([2]; HTRF, mean, n = 3, read-out: IC50, cell-free JAK3 (JH1)) was 300 nM. For the same compound, the “Selectivity for JAK2 over JAK3” value ([2]; cell-free assays) was greater than 3000 fold, the Baso-phils [3, 4] was 0.03 ± 0.01 * x 10^3/µl and the Eosino-phils [3, 4] was 0.14 ± 0.06 x 10^3/µl. For the same compound, the HCT [3, 4] was 51.6 ± 1.5* %, the HGB [3, 4] was 13.4 ± 0.4** g/dL and the Lympho-cytes [3, 4] was 6.2 ± 1.6 x 10^3/µl. The Mono-cytes [3, 4] was 0.04 ± 0.01 x 10^3/µl, the Neutro-phils [3, 4] was 0.78 ± 0.18 x 10^3/µl and the Platelets [3, 4] was 2244 ± 85** x 10^3/µl. For the same compound, the “Platelets MPV” value [3, 4] was 6.9 ± 0.2** fL, the RBC [3, 4] was 9.65 ± 0.27* x 10^6/µl and the Retic [3, 4] was 803 ± 18** x 10^9/L. For the same compound, the WBC [3, 4] was 7.4 ± 1.7 x 10^3/µl, the Baso-phils [3, 5] was 0.04 ± 0.01 x 10^3/µl and the Eosino-phils [3, 5] was 0.06 ± 0.03 * x 10^3/µl. For the same compound, the HCT [3, 5] was 50.3 ± 0.6** %, the HGB [3, 5] was 13.0 ± 0.1** g/dL and the Lympho-cytes [3, 5] was 4.7 ± 1.5** x 10^3/µl. The Mono-cytes [3, 5] was 0.05 ± 0.01 x 10^3/µl, the Neutro-phils [3, 5] was 0.86 ± 0.34 x 10^3/µl and the Platelets [3, 5] was 2376 ± 171 ** x 10^3/µl. The “Platelets MPV” value [3, 5] was 6.8 ± 0.1** fL, the RBC [3, 5] was 9.41 ± 0.13** x 10^6/µl and the Retic [3, 5] was 911 ± 64** x 10^9/L. The WBC [3, 5] was 5.9 ± 1.9* x 10^3/µl, the Baso-phils ([3]; 3 days) was 0.03 ± 0.03 x 10^3/µl and the Eosino-phils ([3]; 3 days) was 0.26 ± 0.09 x 10^3/µl. For the same compound, the HCT ([3]; 3 days) was 50.4 ± 0.8** %, the HGB ([3]; 3 days) was 13.7 ± 0.2** g/dL and the Lympho-cytes ([3]; 3 days) was 4.2 ± 0.9** x 10^3/µl. The Mono-cytes ([3]; 3 days) was 0.05 ± 0.02 x 10^3/µl, the Neutro-phils ([3]; 3 days) was 0.61 ± 0.07 x 10^3/µl and the Platelets ([3]; 3 days) was 1611 ± 85** x 10^3/µl. The “Platelets MPV” value ([3]; 3 days) was 6.6 ± 0.4 fL, the RBC ([3]; 3 days) was 9.29 ± 0.04** x 10^6/µl and the Retic ([3]; 3 days) was 43 ± 6** x 10^9/L. For the same compound, the WBC ([3]; 3 days) was 5.3 ± 1.0** x 10^3/µl, the Baso-phils ([3]; 6 days) was 0.02 ± 0.01** x 10^3/µl and the Eosino-phils ([3]; 6 days) was 0.19 ± 0.06 x 10^3/µl. For the same compound, the HCT ([3]; 6 days) was 48.7 ± 2.5** %, the HGB ([3]; 6 days) was 12.9 ± 0.5** g/dL and the Lympho-cytes ([3]; 6 days) was 3.5 ± 0.4** x 10^3/µl. The Mono-cytes ([3]; 6 days) was 0.05 ± 0.02 x 10^3/µl, the Neutro-phils ([3]; 6 days) was 0.60 ± 0.16 x 10^3/µl and the Platelets ([3]; 6 days) was 2534 ± 88** x 10^3/µl. For the same compound, the “Platelets MPV” value ([3]; 6 days) was 6.1 ± 0.2** fL, the RBC ([3]; 6 days) was 8.80 ± 0.39** x 10^6/µl and the Retic ([3]; 6 days) was 162 ± 24** x 10^9/L. For the same compound, the WBC ([3]; 6 days) was 4.6 ± 0.6** x 10^3/µl.

Reference: paper PMC3356383, “Efficacious Intermittent Dosing of a Novel JAK2 Inhibitor in Mouse Models of Polycythemia Vera” (PLoS ONE, 2012)
